# Laboratory results taken from paper PMC6792352, “Limited Chemical Structural Diversity Found to Modulate Thyroid Hormone Receptor in the Tox21 Chemical Library” (Environmental Health Perspectives, 2019).
# Counter-ions that a name gives are not always drawn. Like-named read-outs stand apart in the source and are kept apart here.
# Assays:
# [1] = Global cytotoxicity: eighteen Tox21 cell viability assays; format: cell-based
# [2] = tested on: Tox21 cell viability assays (different cell types); experiment: as above; format: cell-based
# GH3-TRE-Luc cell line [3] = tested on: GH3-TRE-Luc cell line
# [4] = tested on: thyroid hormone receptor (endogenous TRα and TRβ); experiment: GH3-TRE-Ag-Followup confirmation (TOX21_TR_LUC_GH3_Agonist_Followup, aeid 2226); format: cell-based, rat; details: for AC50: confirmation, agonist mode, read-out: GH3-TRE-Ag-Followup AC50; for GH3-TRE-Ag-Followup hitc: hit call from tcpl
# [5] = tested on: thyroid hormone receptor (endogenous TRα and TRβ); experiment: GH3-TRE-Ag primary qHTS, luciferase reporter, agonist mode (TOX21_TR_LUC_GH3_Agonist, aeid 803); format: cell-based, rat; details: for GH3-TRE-Ag AC50 hitc: hit call from tcpl
# [6] = tested on: thyroid hormone receptor (TR); experiment: Classification of TR actives across characterization assays (TR-Ag / RXR-Ag; TR model binary); details: for Categorization Code: TR agonist characterization; for Classification: TR-Ag = TR agonist, RXR-Ag = RXR agonist
# In short: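 Pharmaceuticals excluded; actives called from GH3-TRE qHTS (agonist, antagonist, viability) on 8,305 chemicals. Confirmation of 84 selected chemicals used GH3-TRE-Ag, mammalian one-hybrid TRβ and RXRα UAS-bla HEK 293T specificity screens, parental HEK293T viability, and two TR:coactivator recruitment assays.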
# in vitro [7] = details: rat
# in vitro [8] = details: rat, gh3-tre-luc cells
# [9] = tested on: thyroid hormone receptor (endogenous TRα and TRβ); experiment: GH3-TRE-Antag primary qHTS, luciferase reporter, antagonist mode with 1 nM T3 (TOX21_TR_LUC_GH3_Antagonist, aeid 804); format: cell-based, rat
# GH3-TRE-Luc cell line [10] = experiment: GH3-TRE-Via cell viability, CellTiter-Fluor (TOX21_TR_LUC_GH3_Antagonist_viability, aeid 805)
# [11] = biological target: T1, TRα ligand-binding domain (Homo sapiens, UniProt P10827); experiment: TRa-coa LanthaScreen TR-FRET coactivator (SRC-2 peptide) recruitment, agonist (TOX21_TRA_COA_Agonist_Followup_ratio, aeid 2230); format: biochemical
# T1 construct: the receptor LBDs expressed as glutathione S-transferase (GST) fusion proteins; purchased
# [12] = biological target: T2, human TRβ ligand-binding domain (Homo sapiens, UniProt P10828); experiment: TRb-coa LanthaScreen TR-FRET coactivator (SRC-2 peptide) recruitment, agonist (TOX21_TRB_COA_Agonist_Followup_ratio, aeid 2244); format: biochemical; set-up: host or cells: GeneBLAzer UAS-bla HEK 293T; details: read-out: EMax (% of Control) trb-coa-agonist-followup-1
# T2 sequence (P10828 217-461 limits assumed): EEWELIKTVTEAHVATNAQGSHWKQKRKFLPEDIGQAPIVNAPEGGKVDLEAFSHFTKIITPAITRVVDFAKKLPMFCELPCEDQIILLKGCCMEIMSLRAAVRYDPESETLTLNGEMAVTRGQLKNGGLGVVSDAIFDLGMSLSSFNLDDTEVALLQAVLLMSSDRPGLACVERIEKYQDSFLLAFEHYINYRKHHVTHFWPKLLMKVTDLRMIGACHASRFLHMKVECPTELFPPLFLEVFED
# [13] = biological target: T2, human TRβ ligand-binding domain; experiment: TRb-bla agonist mammalian one-hybrid beta-lactamase assay (TOX21_TRB_BLA_Agonist_Followup_ratio, aeid 2236); format: cell-based; set-up: host or cells: GeneBLAzer UAS-bla HEK 293T; details: read-out: EMax (% of Control) trb-bla-agonist-followup-1
# human RXRα = biological target: T3, human RXRα (Homo sapiens, UniProt P19793); experiment: RXRa-bla-Ag mammalian one-hybrid beta-lactamase assay (TOX21_TR_RXR_BLA_Agonist_Followup_ratio, aeid 2253); format: cell-based
# T3 construct: host or cells: GeneBLAzer UAS-bla HEK 293T
# T3 sequence (P19793 227-458 limits assumed): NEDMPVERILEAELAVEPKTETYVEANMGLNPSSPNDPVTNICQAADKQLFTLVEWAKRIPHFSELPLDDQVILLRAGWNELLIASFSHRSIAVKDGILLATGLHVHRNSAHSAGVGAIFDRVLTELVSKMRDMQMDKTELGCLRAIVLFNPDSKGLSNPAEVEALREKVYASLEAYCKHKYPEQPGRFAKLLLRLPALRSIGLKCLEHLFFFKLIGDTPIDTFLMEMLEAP
# [14] = Table S8, read-out: Average AC50 (uM) GH3-TRE-Antag
# [15] = antagonist candidates, inactive samples arbitrarily set to AC50=1,000 μM, read-out: GH3-TRE-Ag AC50
# [16] = antagonist mode, 1 nM T3, read-out: GH3-TRE-Antag AC50
# T1 sequence (P10827 163-410 isoform P10827-2 limits assumed, other chains not shown): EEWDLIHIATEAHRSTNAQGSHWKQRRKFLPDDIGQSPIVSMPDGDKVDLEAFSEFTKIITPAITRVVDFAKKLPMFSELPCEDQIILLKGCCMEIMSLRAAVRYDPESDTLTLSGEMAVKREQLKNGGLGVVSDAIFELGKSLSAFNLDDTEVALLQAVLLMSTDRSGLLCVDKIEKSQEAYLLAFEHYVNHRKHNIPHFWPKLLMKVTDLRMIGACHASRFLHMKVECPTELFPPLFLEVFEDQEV
structure (smiles),measurement,setting,value
"N[C@@H](Cc1cc(I)c(Oc2ccc(O)c(I)c2)c(I)c1)C(=O)O [3,5,3ʹ-Triiodothyronine, reference compound]",AC50,[1],> 92 µM
same,GLOBAL CYTOTOXICITY cytotox.median,[2],>92
same,GLOBAL CYTOTOXICITY cytotox.number_Active,[2],0
same,TR_LUC_GH3_Antagonist_viability hitc,"GH3-TRE-Luc cell line [3]; rat, 24 h",1
same,Categorization Code,[6],TR-Ag
same,Classification,[6],TR-Ag
same,AC50 at 24 h,in vitro [7],41.7 µM
CC[C@]12CCCN3CCc4c(n(c5ccccc45)C(=O)C1)[C@@H]32 [(-)-Eburnamonine],AC50,GH3-TRE-Luc cell line [3],7.18 µM
same,resp_max GH3-TRE-Via,GH3-TRE-Luc cell line [3],66.2
same,CC50 at 24 h,in vitro [8]; AC50 (uM) modified / 1000,7.18 µM
same,resp_max GH3-TRE-Antag,[9]; Table S8,88.8
same,AC50,[9]; [14],6.85 µM
CC[C@H](O)C(C[C@H](C)N(C)C)(c1ccccc1)c1ccccc1 [(-)-alpha-Methadol hydrochloride],resp_max GH3-TRE-Via,GH3-TRE-Luc cell line [10]; Table S8,67.0
same,AC50,"GH3-TRE-Luc cell line [10]; read-out: Average AC50 GH3-TRE-Via, Table S8, inactive set to 1000",43.2 µM
same,CC50 at 24 h,"in vitro [8]; AC50 (uM) modified / 1000, Tox21_110001=Tox21_112827, viability, 1 nM T3 present, 24 h",43.2 µM
same,resp_max GH3-TRE-Antag,[9]; Table S8,76.3
same,AC50,[9]; [14],58 µM
"CCC(=C(CC)c1ccc(O)cc1)c1ccc(O)cc1 [(Z,E)-Diethylstilbestrol, reference compound]",AC50,GH3-TRE-Luc cell line [3],12.2 µM
same,AC50,[5]; [15],> 92 µM
same,AC50,[9]; [16],17.1 µM
"O=C1NCN(c2ccccc2)C12CCN(CCCOc1ccc(F)cc1)CC2 [AMI-193, reference compound]",AC50,"GH3-TRE-Luc cell line [10]; read-out: GH3-TRE-Via AC50, inactive samples arbitrarily set to AC50=1,000 μM",14.1 µM
same,AC50,[5]; [15],> 92 µM
same,AC50,[9]; [16],15.8 µM
"COc1cc(C)c(/C=C/C(C)=C/C=C/C(C)=C/C(=O)O)c(C)c1C [Acitretin, reference compound]",TR_LUC_GH3_Antagonist_viability hitc,GH3-TRE-Luc cell line [10]; hit call from tcpl,0
same,AC50,"[1]; median over 18 Tox21 cell viability assays (Judson et al. 2016, invitrodb_v2), read-out: Global cytotoxicity AC50 median",> 92 µM
same,GLOBAL CYTOTOXICITY cytotox.median,[2],>92
same,GLOBAL CYTOTOXICITY cytotox.number_Active,[2],0
same,EMax (% of Control) gh3-tre-agonist-followup-1_agonist,[4],79.4 % of Control
same,AC50,[4],0.94 µM
same,GH3-TRE-Ag-Followup hitc,[4],1
same,EMax (% of Control) gh3-tre-agonist,[5],24.4 % of Control
same,GH3-TRE-Ag AC50 hitc,[5],1
same,Categorization Code,[6],RXR-Ag
same,Classification,[6],RXR-Ag
same,AC50,"[11]; cell-free coactivator recruitment, read-out: TRa-coa-Ag AC50",> 92 µM
same,TRa-coa hitc,"[11]; hit call from tcpl, agonist",0
same,Emax,[11]; read-out: EMax (% of Control) tra-coa-agonist-followup-1,3.4%
same,Emax,[12],4.8%
same,Emax,[13],4.1%
same,AC50,"human RXRα; HEK 293T one-hybrid, agonist mode, inactive set to 1,000, read-out: RXRa-bla-Ag AC50",0.564 µM
same,tr-followup-rxr-bla-agonist-1 hitc,human RXRα; hit call from tcpl,1
same,Emax,human RXRα; read-out: EMax (% of Control) tr-followup-rxr-bla-agonist-1,105%
same,AC50 at 24 h,in vitro [7],> 92 µM
"CCOC(=O)C1=C(COCCN)NC(C)=C(C(=O)OC)C1c1ccccc1Cl (centres unmarked) [Amlodipine besylate, reference compound]",AC50,[5]; [15],> 92 µM
same,AC50,[9]; [16],4.56 µM
same,AC50 at 24 h,in vitro [7],2.15 µM
N=C1C=CC(=C(c2ccc(N)cc2)c2ccc(N)cc2)C=C1 [C.I. Basic Red 9 monohydrochloride],AC50,[2],24.2 µM
same,Active in global cytotoxicity assays (%),[2],66.7%
same,AC50,GH3-TRE-Luc cell line [3],8.8 µM
same,AC50,[5]; [15],> 92 µM
same,CC50 at 24 h,in vitro [8]; AC50 (uM) modified / 1000,8.8 µM
same,AC50,[9]; [16],5.15 µM
O=C(CO)[C@@H](O)[C@H](O)[C@@H](O)C(=O)O [Calcium 5-ketogluconate],resp_max (maximum response value),"GH3-TRE-Luc cell line [10]; Table S2, aeid 805",18.832 percent_activity
same,AC50,GH3-TRE-Luc cell line [3],> 50 µM
same,hitc,GH3-TRE-Luc cell line [3],0
same,hitc_modified,GH3-TRE-Luc cell line [3],0
same,modl_tp (top asymptote for the winning model),"[5]; Table S2, aeid 803",2.81 percent_activity
same,resp_max (maximum response value),"[5]; Table S2, aeid 803, per sample",2.734 percent_activity
same,hitc,"[5]; Table S2, aeid 803, tcpl hit call",0
same,hitc_modified,"[5]; Table S2, aeid 803, final hitc after manual review",0
same,AC50,"[5]; Table S2, aeid 803, inactive set to 1000, read-out: AC50 (uM) modified",> 50 µM
same,CC50 at 24 h,in vitro [8]; AC50 (uM) modified / 1000,> 50 µM
same,hitc,"[9]; Table S2, aeid 804",0
same,hitc_modified,"[9]; Table S2, aeid 804",0
same,resp_max (maximum response value),"[9]; Table S2, aeid 804",6.735 percent_activity
same,AC50,"[9]; Table S2, aeid 804, inactive set to 1000, read-out: AC50 (uM) modified",> 50 µM
CN(C)S(=O)(=O)N(SC(F)(Cl)Cl)c1ccccc1 [Dichlofluanid],cytotoxicity in GH3 viability assay,GH3-TRE-Luc cell line [3],loss of viability at virtually identical concentrations
same,CC50 at 24 h,in vitro [8]; AC50 (uM) modified / 1000,1.43 µM
same,activity in GH3-TRE antagonist mode assay,[9],active
"CNCC[C@H](Oc1cccc2ccccc12)c1cccs1 [Duloxetine hydrochloride, reference compound]",AC50,[5]; read-out: GH3-TRE-Ag AC50,> 92 µM
same,AC50,"[9]; read-out: GH3-TRE-Antag AC50, antagonist mode, 1 nM T3",6.22 µM
same,AC50 at 24 h,in vitro [7],5.69 µM
COC(=O)C1=C(C)NC(C)=C(C(=O)OCCN2CCN(C(c3ccccc3)c3ccccc3)CC2)C1c1cccc([N+](=O)[O-])c1 (centres unmarked) [Manidipine dihydrochloride],AC50,[2],18.6 µM
same,Active in global cytotoxicity assays (%),[2],28.8%
same,AC50,GH3-TRE-Luc cell line [3],9.06 µM
same,AC50,[5]; [15],> 92 µM
same,CC50 at 24 h,in vitro [8]; AC50 (uM) modified / 1000,9.06 µM
same,AC50,[9]; [16],7.4 µM
CC[C@H]1OC(=O)C[C@@H](O)[C@H](C)[C@@H](O[C@@H]2O[C@H](C)C[C@H](N(C)C)[C@H]2O)[C@@H](CC=O)C[C@@H](C)C(=O)/C=C/[C@]2(C)O[C@H]2[C@@H]1C [Rosaramicin],AC50,[1],26.8 µM
same,Active in global cytotoxicity assays (%),[2],46.7%
same,AC50,[5]; [15],> 92 µM
same,CC50 at 24 h,in vitro [8]; AC50 (uM) modified / 1000,22.9 µM
same,AC50 at 24 h,in vitro [7],24.4 µM
"CC[C@@]1(O)C(=O)OCc2c1cc1n(c2=O)Cc2cc3c(CN(C)C)c(O)ccc3nc2-1 [Topotecan hydrochloride, reference compound]",cytotoxicity in GH3 viability assay,GH3-TRE-Luc cell line [3],not considered active
same,activity in GH3-TRE antagonist mode assay,[9],complete inhibition of luciferase activity
